Data on 47 compounds can be found in patent US7101878B1 (Agouron Pharmaceuticals, Inc., priority 1998, dated 2006).

The target of the experiment is T1, mouse GnRH receptor (Mus musculus, UniProt Q01776).
T1 construct: expressed in transfected cells; host or cells: 293 cells
T1 sequence (Q01776 1-327): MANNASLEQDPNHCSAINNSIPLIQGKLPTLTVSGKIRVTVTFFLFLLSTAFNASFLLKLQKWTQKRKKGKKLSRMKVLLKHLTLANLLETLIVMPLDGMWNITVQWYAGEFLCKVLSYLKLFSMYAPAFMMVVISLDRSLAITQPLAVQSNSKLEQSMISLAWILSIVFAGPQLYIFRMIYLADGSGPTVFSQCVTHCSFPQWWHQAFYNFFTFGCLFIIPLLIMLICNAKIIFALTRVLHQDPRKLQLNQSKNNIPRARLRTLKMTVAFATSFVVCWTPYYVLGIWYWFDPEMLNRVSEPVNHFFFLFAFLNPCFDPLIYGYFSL
Put plainly: Radioligand binding, 125I-GnRH-A, 293 cells expressing mouse GnRH receptors. To be noted: 10 uM; read-out: % Inhib. @ 10 uM mGnRH. The gist of the method: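 Bound label captured on 0.1% polyethyleneimine-treated GF/C filters, washed three times with PBS, counted. IC50 derived; identical set-up for every species.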
Consider `Cc1cc2c(cc1Cc1ccc(C(=O)N(CCCN3CCN(C)CC3)Cc3cc(C)n(-c4cccc(C(F)(F)F)c4)c3C)o1)C(C)(C)CCC2(C)C` [drawing 1488], for which the inhibition at 10 µM is 102%.

For the compound `Cc1cc2c(cc1Cc1ccc(C(=O)N(CCN(C)C)Cc3cccc4ccccc34)o1)C(C)(C)CCC2(C)C` [drawing 1489], the inhibition at 10 µM was 103%.

For the compound `Cc1cc2c(cc1Cc1ccc(C(=O)N(CCCN3CCN(C)CC3)Cc3ccc(F)cc3)o1)C(C)(C)CCC2(C)C` [drawing 1490], the inhibition at 10 µM turned out to be 103%.

For the compound `Cc1cc2c(cc1Cc1ccc(C(=O)N(CCN(C)C)Cc3ccccc3[N+](=O)[O-])o1)C(C)(C)CCC2(C)C` [drawing 1491], the inhibition at 10 µM is 103%.

Turning to `Cc1cc2c(cc1Cc1ccc(C(=O)N(CCC3CCCN3C)Cc3ccc4ccccc4c3)o1)C(C)(C)CCC2(C)C` (centres unmarked) [drawing 1492], the inhibition at 10 µM was found to be 105%.

With `Cc1cc2c(cc1Cc1ccc(C(=O)N3CCC(C)CC3)o1)C(C)(C)CCC2(C)C` [drawing 1493], the inhibition at 10 µM is 82%.

Consider `CCOC(=O)CN(Cc1ccccc1)C(=O)c1ccc(Cc2cc3c(cc2C)C(C)(C)CCC3(C)C)o1` [drawing 1494], for which the inhibition at 10 µM is 62%.

Turning to `Cc1cc2c(cc1Cc1ccc(C(=O)N3CCC(C(=O)c4ccccc4)CC3)o1)C(C)(C)CCC2(C)C` [drawing 1495], the inhibition at 10 µM is 59%.

On to `COc1cccc(N2CCN(C(=O)c3ccc(Cc4cc5c(cc4C)C(C)(C)CCC5(C)C)o3)CC2)c1` [drawing 1497], for which the inhibition at 10 µM was 67%.

Consider `Cc1cc2c(cc1Cc1ccc(C(=O)NCCSCCO)o1)C(C)(C)CCC2(C)C` [drawing 1498], for which the inhibition at 10 µM worked out at 101%.

With `CCC(C)CNC(=O)c1ccc(Cc2cc3c(cc2C)C(C)(C)CCC3(C)C)o1` (centres unmarked) [drawing 1499], the inhibition at 10 µM turned out to be 73%.

As to `Cc1cc2c(cc1Cc1ccc(C(=O)N(C)CC3OCCO3)o1)C(C)(C)CCC2(C)C` [drawing 1500], the inhibition at 10 µM is 86%.

Take `Cc1cc2c(cc1Cc1ccc(C(=O)N(CC(C)C)CC(C)C)o1)C(C)(C)CCC2(C)C` [drawing 1501]: the inhibition at 10 µM was 85%.

Consider `Cc1cc2c(cc1Cc1ccc(C(=O)N3C[C@H]4CCCC[C@H]4CC3C(=O)NC(C)(C)C)o1)C(C)(C)CCC2(C)C` (some centres unmarked) [drawing 1502], for which the inhibition at 10 µM is 52%.

As to `CC(=O)N1CCCN(C(=O)c2ccc(Cc3cc4c(cc3C)C(C)(C)CCC4(C)C)o2)CC1` [drawing 1503], the inhibition at 10 µM amounted to 73%.

Consider `Cc1cc2c(cc1Cc1ccc(C(=O)N(Cc3ccco3)C3CC(=O)N(C)C3=O)o1)C(C)(C)CCC2(C)C` (centres unmarked) [drawing 1504], for which the inhibition at 10 µM came to 69%.

With `COC(CNC(=O)c1ccc(Cc2cc3c(cc2C)C(C)(C)CCC3(C)C)o1)OC` [drawing 1505], the inhibition at 10 µM was 103%.

As for `CCN(CC)CCNC(=O)c1ccc(Cc2cc3c(cc2C)C(C)(C)CCC3(C)C)o1` [drawing 1506], the inhibition at 10 µM was found to be 94%.

In the case of `Cc1cc2c(cc1Cc1ccc(C(=O)NCC(C)(C)CN(C)C)o1)C(C)(C)CCC2(C)C` [drawing 1507], the inhibition at 10 µM was determined as 98%.

On to `Cc1cc2c(cc1Cc1ccc(C(=O)NC3CCS(=O)(=O)C3)o1)C(C)(C)CCC2(C)C` (centres unmarked) [drawing 1508], for which the inhibition at 10 µM was 90%.

For the compound `Cc1cc2c(cc1Cc1ccc(C(=O)N3CCC(O)CC3)o1)C(C)(C)CCC2(C)C` [drawing 1510], the inhibition at 10 µM was 77%.

With `Cc1cc2c(cc1Cc1ccc(C(=O)N3CCC4(CC3)C(=O)NCN4c3ccccc3)o1)C(C)(C)CCC2(C)C` [drawing 1511], the inhibition at 10 µM worked out at 72%.

Turning to `Cc1cc2c(cc1Cc1ccc(C(=O)N3CCC(O)(c4ccc(Br)cc4)CC3)o1)C(C)(C)CCC2(C)C` [drawing 1512], the inhibition at 10 µM came out at 49%.

As for `COc1cccc(N2CCN(C(=O)c3ccc(Cc4cc5c(cc4C)C(C)(C)CCC5(C)C)o3)CC2C)c1` (centres unmarked) [drawing 1513], the inhibition at 10 µM was 76%.

For `Cc1cc2c(cc1Cc1ccc(C(=O)N3CCc4ccccc4C3Cc3ccccc3)o1)C(C)(C)CCC2(C)C` (centres unmarked) [drawing 1515], the inhibition at 10 µM is 46%.

For `Cc1cc2c(cc1Cc1ccc(C(=O)N(C)CCCN(C)C)o1)C(C)(C)CCC2(C)C` [drawing 1516], the inhibition at 10 µM turned out to be 92%.

Consider `Cc1cc2c(cc1Cc1ccc(C(=O)NCCCCCCN(C)C)o1)C(C)(C)CCC2(C)C` [drawing 1519], for which the inhibition at 10 µM is 106%.

Take `Cc1cccc(N2CCN(C(=O)c3ccc(Cc4cc5c(cc4C)C(C)(C)CCC5(C)C)o3)CC2C)c1` (centres unmarked) [drawing 1520]: the inhibition at 10 µM worked out at 73%.

On to `Cc1cc2c(cc1Cc1ccc(C(=O)NCCc3ccc(Cl)cc3)o1)C(C)(C)CCC2(C)C` [drawing 1521], for which the inhibition at 10 µM turned out to be 81%.

Turning to `Cc1cc2c(cc1Cc1ccc(C(=O)NC3CCCCC3O)o1)C(C)(C)CCC2(C)C` (centres unmarked) [drawing 1522], the inhibition at 10 µM is 97%.

Consider `Cc1cc2c(cc1Cc1ccc(C(=O)N3CCCC(C)(C)C3)o1)C(C)(C)CCC2(C)C` [drawing 1523], for which the inhibition at 10 µM came out at 98%.

With `CCN(C(=O)c1ccc(Cc2cc3c(cc2C)C(C)(C)CCC3(C)C)o1)C1CCCCC1` [drawing 1524], the inhibition at 10 µM was found to be 100%.

Regarding `Cc1cc2c(cc1Cc1ccc(C(=O)NCCc3c[nH]c4ccc(O)cc34)o1)C(C)(C)CCC2(C)C` [drawing 1526], the inhibition at 10 µM was 84%.

`Cc1cc2c(cc1Cc1ccc(C(=O)NCCO)o1)C(C)(C)CCC2(C)C` [drawing 1527]: the inhibition at 10 µM was found to be 53%.

Regarding `Cc1cc2c(cc1Cc1ccc(C(=O)NCCc3ccc(Oc4ccccc4)cc3)o1)C(C)(C)CCC2(C)C` [drawing 1529], the inhibition at 10 µM turned out to be 57%.

For the compound `CCOC(=O)N1CCN(C(=O)c2ccc(Cc3cc4c(cc3C)C(C)(C)CCC4(C)C)o2)CC1` [drawing 1530], the inhibition at 10 µM is 65%.

With `Cc1cc2c(cc1Cc1ccc(C(=O)N(C)CCC#N)o1)C(C)(C)CCC2(C)C` [drawing 1531], the inhibition at 10 µM came out at 83%.

For `COc1ccc(CCNC(=O)c2ccc(Cc3cc4c(cc3C)C(C)(C)CCC4(C)C)o2)cc1Br` [drawing 1532], the inhibition at 10 µM was 78%.

With `Cc1cc2c(cc1Cc1ccc(C(=O)N3CCN(Cc4ccc(C(C)(C)C)cc4)CC3)o1)C(C)(C)CCC2(C)C` [drawing 1534], the inhibition at 10 µM came to 65%.

Turning to `Cc1cc2c(cc1Cc1ccc(C(=O)N(Cc3cccnc3)Cc3ccco3)o1)C(C)(C)CCC2(C)C` [drawing 1535], the inhibition at 10 µM came to 89%.

For `Cc1cc2c(cc1Cc1ccc(C(=O)N(CCC#N)CCC#N)o1)C(C)(C)CCC2(C)C` [drawing 1536], the inhibition at 10 µM was 77%.

`CCC(O)CNC(=O)c1ccc(Cc2cc3c(cc2C)C(C)(C)CCC3(C)C)o1` (centres unmarked) [drawing 1537]: the inhibition at 10 µM was found to be 99%.

For `Cc1cc2c(cc1Cc1ccc(C(=O)N(Cc3cccnc3)Cc3cccnc3)o1)C(C)(C)CCC2(C)C` [drawing 1538], the inhibition at 10 µM came to 101%.

For the compound `CNC(=O)c1ccc(Cc2cc3c(cc2C)C(C)(C)CCC3(C)C)o1` [drawing 1539], the inhibition at 10 µM is 23%.

On to `Cc1cc2c(cc1Cc1ccc(C(=O)N(Cc3ccccc3)C(C)C)o1)C(C)(C)CCC2(C)C` [drawing 1541], for which the inhibition at 10 µM is 84%.

Consider `Cc1cc2c(cc1Cc1ccc(C(=O)N(Cc3ccccc3)[C@@H](C)c3ccccc3)o1)C(C)(C)CCC2(C)C` [drawing 1542], for which the inhibition at 10 µM was found to be 46%.

For the compound `CCN(Cc1ccc(C)cc1)C(=O)c1ccc(Cc2cc3c(cc2C)C(C)(C)CCC3(C)C)o1` [drawing 1543], the inhibition at 10 µM turned out to be 79%.
